US10226043B2, “Controlled release biocidal salts” (Nevada Naturals Inc., priority 2005, dated 2019)

Columns and labels:
[1] = test system: bacteria that are part of the background flora of raw meat; test: Antimicrobial activity of compounded films (beef loins in heat-sealed package); type: cell-based
Procedure: Two beef loins from a slaughterhouse were tested in a heat-sealed package simulating food packaging. The linear low density polyethylene film was compounded with 1% w/w LAE lactate biocidal salt of the invention. The log colony forming units (“CFU”) reduction values for bacteria that are part of the background flora of raw meat for both samples are 42 days indicate that there is a release of the salt of the invention from the polyethylene film to the surrounding beef surfaces.

[2] = test system: yeast cultures and A. niger; test: Food-grade preservation test (aloe vera gel challenge); type: cell-based; conditions: for Log Reduction Values, day 0: day 0, initial challenge 7 logs; for Log Reduction Values, day 0 / Log Reduction Values, day 2 / Log Reduction Values, day 7 / Log Reduction Values, day 14: aloe vera gel pH 4-4.5; for Log Reduction Values, day 0 / Log Reduction Values, day 2 / Log Reduction Values, day 7 / Log Reduction Values, day 14 / Log Reduction Values, day 21 / Log Reduction Values, day 28 / Log Reduction Values, day 35 / Log Reduction Values, day 42: LAE-HCl 1725 ppm, LAE-lactate 1500 ppm, lactic acid 1500 ppm; for Log Reduction Values, day 21: day 21 (re-challenge of 7 logs at day 21); for Log Reduction Values, day 28: day 28 (re-challenges of 7 logs at day 21 and day 28); for Log Reduction Values, day 35: day 35, after the second re-challenge; for Log Reduction Values, day 42: day 42, after two re-challenges
Procedure: Aloe vera gel was prepared as a 50% dilution and dispensed as 20 g per container. Inoculum was prepared as 48 hour yeast cultures in tripticase soy broth and A. niger suspension. The inoculum was pooled and 100 μl added to each container. The preservatives were prepared as 1% solutions and added to each pre-labeled container. The samples were well mixed and stored. Recoveries were carried out at selected intervals (1:10 dilutions plated with sabourad dextrose agar. Pre-labeled plates were incubated at 25-30° C. for 48-72 hours; the pH of the samples was in the range of 4-4.5. The plates were removed from incubation, counted cfu recorded and converted to log reduction values.
Thereafter, re-challenges of 7 logs each were made at day 21 and day 28.

[3] = test system: microbes such as bacteria, fungi and yeasts; conditions: general statement, no test described; cited from earlier work
[4] = test system: naturally-occurring aerobic bacteria of beef purge; test: Beef purge test; type: cell-based; conditions: for Avg. CFU/g / % Reduction: 48 hours, refrigerated, 5% w/w (0.5 g in 10 ml purge); for % Reduction: vs control
Procedure: Two beef tenderloins containing a large quantity of purge (i.e., liquid surrounding raw meats; meat soaker pads were used to trap such liquids to the extent possible) were purchased at a local store. The purge was isolated from the packages and transferred to a series of test tubes and 10 ml of purge were placed in each test tube. To the test tubes was added 0.5 g of either LAE hydrochloride or LAE mono-laurate salts. The samples were mixed in a vortex mixer and serial dilutions were then plated on petrifilm for readings at time zero. The test tubes were then placed in the refrigerator and were again plated at 24 hours and 48 hours. The beef purge contained naturally-occurring aerobic bacteria. The goal is to have >99% reduction of the bacteria after 48 hours. LAE hydrochloride was tested at 0.5 g/10 ml w/v. […] Note that LAE-monolaurate contains about 66% of the active LAE cation.

Bacillus subtilus = test: Antimicrobial activity of LAE laurate, minimum inhibitory concentration on inoculated soya agar plates; type: cell-based; conditions: Bacillus subtilus (Gram positive), 37° C., 48 hours, salt dissolved in 1,2-pentanediol
Procedure: (§1) 0.1 g of N^α-lauroyl-L-arginine ethyl ester laurate (LAE laurate) was dissolved in 100 g of 1,2-pentanediol so as to provide a solution containing 1,000 parts per million of the salt. The solution was then applied to soya agar plates which had been previously inoculated with the bacteria indicated below and subsequently incubated at 37° C. for 48 hours.

Enterobacter aerogenes = test: as above; type: cell-based; conditions: Enterobacter aerogenes (Gram negative), 37° C., 48 hours, salt dissolved in 1,2-pentanediol
Procedure: as §1

Staphylococcus aureus = test: as above; type: cell-based; conditions: Staphylococcus aureus (Gram positive), 37° C., 48 hours, salt dissolved in 1,2-pentanediol
Procedure: as §1

[5] = day 42, film compounded with 1% w/w salt, vs. control

In the case of `CC(O)C(=O)O.CCCCCCCCCCCC(=O)N[C@@H](CCCNC(=N)N)C(=O)OCC` [LAE lactate], the “Log CFU/g, day 7” value ([1]; day 7, beef loin in linear low density polyethylene film compounded with 1% w/w salt) is reported as 2.31 Log CFU/g, the “Log CFU/g, day 14” value ([1]; day 14, beef loin in linear low density polyethylene film compounded with 1% w/w salt) is reported as 3.68 Log CFU/g and the “Log CFU/g, day 21” value ([1]; day 21, beef loin in linear low density polyethylene film compounded with 1% w/w salt) is reported as 3.97 Log CFU/g. For the same molecule, the “Log CFU/g, day 28” value ([1]; day 28, beef loin in linear low density polyethylene film compounded with 1% w/w salt) was 5.32 Log CFU/g, the “Log CFU/g, day 42” value ([1]; day 42, beef loin in linear low density polyethylene film compounded with 1% w/w salt) was 5.57 Log CFU/g and the “Day 42 % reduction vs. control” value [1, 5] was 97.9%. For the same molecule, the “Day 42 log reduction vs. control” value [1, 5] was 1.67, the “preservation compared with LAE-HCl” value ([2]; after the two re-challenges) was “superior to LAE-HCl” and the “Log Reduction Values, day 0” value [2] was 0. The “Log Reduction Values, day 2” value [2] was 3.7, the “Log Reduction Values, day 7” value [2] was 6.0 and the “Log Reduction Values, day 14” value [2] was 6.0. The “Log Reduction Values, day 21” value [2] was 6.0, the “Log Reduction Values, day 28” value [2] was 3.9 and the “Log Reduction Values, day 35” value [2] was 4.0. The “Log Reduction Values, day 42” value [2] was 0.7.

In the case of `CCCCCCCCCCCC(=O)N[C@@H](CCCNC(=N)N)C(=O)OCC` [LAE, N^α-lauroyl-L-arginine ethyl ester], the “biocidal ions needed to inhibit or kill microbes” value [3] is given as 2-128 ppm.

In the case of `CCCCCCCCCCCC(=O)N[C@@H](CCCN=C(N)N)C(=O)OCC.Cl` [LAE-HCl], the “Avg. CFU/g” value [4] is reported as under 1.000E+02 CFU/g, the “% Reduction” value [4] is reported as 99.999% and the “Log Reduction Values, day 0” value [2] is reported as 0. The “Log Reduction Values, day 2” value [2] was 4.7, the “Log Reduction Values, day 7” value [2] was 6.0 and the “Log Reduction Values, day 14” value [2] was 5.8. For the same molecule, the “Log Reduction Values, day 21” value [2] was 6.0, the “Log Reduction Values, day 28” value [2] was 1.7 and the “Log Reduction Values, day 42” value [2] was 0.0.

With `CC(O)C(=O)O` (stereo not drawn) [Lactic acid] the “Log Reduction Values, day 2” value [2] was 1.0, the “Log Reduction Values, day 7” value [2] was 0.2 and the “Log Reduction Values, day 14” value [2] was 0.0. The “Log Reduction Values, day 35” value [2] was 0.0 and the “Log Reduction Values, day 42” value [2] was 0.0.

For `[H]/N=C(\N/C(=N/[H])NCCCCCCNC(=N)NC(=N)Nc1ccc(Cl)cc1)Nc1ccc(Cl)cc1` [chlorhexidine], the “biocidal ions needed to inhibit or kill microbes” value [3] is listed as 2-8 ppm.

In the case of `Oc1cc(Cl)ccc1Oc1ccc(Cl)cc1Cl` [triclosan], the “biocidal ions needed to inhibit or kill microbes” value [3] is listed as 2-40 ppm.

In the case of “N^α-lauroyl-L-arginine ethyl ester laurate [LAE laurate]”, the “Minimum Inhibitory Concentration” value (Bacillus subtilus) is reported as under 25 ppm, the “Minimum Inhibitory Concentration” value (Enterobacter aerogenes) is reported as under 45 ppm and the “Minimum Inhibitory Concentration” value (Staphylococcus aureus) is reported as under 40 ppm. For the same molecule, the “Avg. CFU/g” value [4] was 2.82E+03 CFU/g, the “% Reduction” value [4] was 99.96% and the “performance compared with LAE-HCl” value ([4]; after 48 hours, based on the test requirements (>99% reduction)) was “performed as well as LAE-HCl”.
